# Literature values as cited in patent US20020086070A1, “Anti-inflammatory and connective tissue repair formulations” (priority 2000, published 2002).
# Legend:
# [1] = test system: COX-2 over COX-1; conditions: specificity for COX-2 over COX-1
# [2] = test system: skin tumor formation; conditions: following initiation with a chemical challenge
# [3] = biological target: cyclooxygenase-2 induction; conditions: TNFalpha-dependent induction; read-out: IC(50) for suppression of TNFalpha-dependent cyclooxygenase-2 induction
# [4] = test system: arachidonic acid-induced inflammatory ear edema; conditions: mice
IC50 [3],Structure (SMILES),COX-2 specificity [1],inhibition of skin tumor formation [2],inhibition of arachidonic acid-induced inflammatory ear edema [4]
–,CC(=O)Oc1ccccc1C(=O)O [aspirin],0.6,–,–
~0.03 µM,CC(C)=CCC1=C(O)[C@](O)(CC=C(C)C)C(=O)C(C(=O)CC(C)C)=C1O [humulon],–,inhibited skin tumor formation,inhibited
